# Measured values taken from patent US20150148235A1, “HERBICIDE-RESISTANT SUNFLOWER PLANTS WITH MULTIPLE HERBICIDE RESISTANT ALLELES OF AHASL1 AND METHODS OF USE” (NIDERA S.A., priority 2013, published 2015).
# Test system: sunflower hybrids and lines (A122T, A205V, A205V/A122T)
# Assay: Field trial North Dakota 2006, phytotoxicity ratings after imazamox or imazapyr, Example 3
# Assay type: in vivo, Helianthus annuus
# Conditions: for phytotoxicity: 200 g ai/ha
# Description: • Spray volume: 10 gallons per acre (GPA) (or 100 liters/ha) for backpack sprayer or 20 GPA (or 200 liters/ha) for tractor mounted boom • Growth Stage at Herbicide Application: 2-4 leaves
# Entry 15 (WT Maintainer line) was left unsprayed in all treatment blocks.
# Phytotoxicity ratings were assessed at 7 and 21 days following herbicide application.
# The data was subjected to an ANOVA analysis and the means from the 3 repetitions are presented in Table 7 (phytotoxicity at 7 days post-treatment) and Table 8 (phytotoxicity at 21 days post-treatment).
smiles,measurement,setting,value
COCc1cnc(C2=NC(C)(C(C)C)C(=O)N2)c(C(=O)O)c1 (centres unmarked) [imazamox],Phytotoxicity Rating (% Crop Injury),"9-line (GM40 restorer, A122 homo), 200 g ai/ha + 0.25% NIS, 7 DAT",10.0%
same,Phytotoxicity Rating (% Crop Injury),"9-line (GM40 restorer, A122 homo), 200 g ai/ha + 0.25% NIS, 21 DAT",3.3%
same,Phytotoxicity Rating (% Crop Injury),"10-hybrid (IMI CMS × GM40 restorer, A205/A122 hetero/double), 50 g ai/ha + 0.25% NIS, 7 DAT",3.3%
same,Phytotoxicity Rating (% Crop Injury),"10-hybrid (IMI CMS × GM40 restorer, A205/A122 hetero/double), 50 g ai/ha + 0.25% NIS, 21 DAT",0.0%
same,Phytotoxicity Rating (% Crop Injury),"10-hybrid (IMI CMS × GM40 restorer, A205/A122 hetero/double), 100 g ai/ha + 0.25% NIS, 7 DAT",3.3%
same,Phytotoxicity Rating (% Crop Injury),"10-hybrid (IMI CMS × GM40 restorer, A205/A122 hetero/double), 100 g ai/ha + 0.25% NIS, 21 DAT",0.0%
same,Phytotoxicity Rating (% Crop Injury),"10-hybrid (IMI CMS × GM40 restorer, A205/A122 hetero/double), 200 g ai/ha + 0.25% NIS, 7 DAT",10.0%
same,Phytotoxicity Rating (% Crop Injury),"10-hybrid (IMI CMS × GM40 restorer, A205/A122 hetero/double), 200 g ai/ha + 0.25% NIS, 21 DAT",1.7%
same,Phytotoxicity Rating (% Crop Injury),"11-hybrid (GM40 CMS × IMI restorer, A205/A122 hetero/double), 50 g ai/ha + 0.25% NIS, 7 DAT",0.0%
same,Phytotoxicity Rating (% Crop Injury),"11-hybrid (GM40 CMS × IMI restorer, A205/A122 hetero/double), 50 g ai/ha + 0.25% NIS, 21 DAT",0.0%
same,Phytotoxicity Rating (% Crop Injury),"11-hybrid (GM40 CMS × IMI restorer, A205/A122 hetero/double), 100 g ai/ha + 0.25% NIS, 7 DAT",3.3%
same,Phytotoxicity Rating (% Crop Injury),"11-hybrid (GM40 CMS × IMI restorer, A205/A122 hetero/double), 100 g ai/ha + 0.25% NIS, 21 DAT",0.0%
same,Phytotoxicity Rating (% Crop Injury),"11-hybrid (GM40 CMS × IMI restorer, A205/A122 hetero/double), 200 g ai/ha + 0.25% NIS, 7 DAT",11.7%
same,Phytotoxicity Rating (% Crop Injury),"11-hybrid (GM40 CMS × IMI restorer, A205/A122 hetero/double), 200 g ai/ha + 0.25% NIS, 21 DAT",3.3%
same,Phytotoxicity Rating (% Crop Injury),"12-hybrid (IMI CMS × GM40 restorer, A205/A122 hetero/double), 50 g ai/ha + 0.25% NIS, 7 DAT",10.0%
same,Phytotoxicity Rating (% Crop Injury),"12-hybrid (IMI CMS × GM40 restorer, A205/A122 hetero/double), 50 g ai/ha + 0.25% NIS, 21 DAT",3.3%
same,Phytotoxicity Rating (% Crop Injury),"12-hybrid (IMI CMS × GM40 restorer, A205/A122 hetero/double), 100 g ai/ha + 0.25% NIS, 7 DAT",10.0%
same,Phytotoxicity Rating (% Crop Injury),"12-hybrid (IMI CMS × GM40 restorer, A205/A122 hetero/double), 100 g ai/ha + 0.25% NIS, 21 DAT",3.3%
same,Phytotoxicity Rating (% Crop Injury),"12-hybrid (IMI CMS × GM40 restorer, A205/A122 hetero/double), 200 g ai/ha + 0.25% NIS, 7 DAT",11.7%
same,Phytotoxicity Rating (% Crop Injury),"12-hybrid (IMI CMS × GM40 restorer, A205/A122 hetero/double), 200 g ai/ha + 0.25% NIS, 21 DAT",3.3%
same,Phytotoxicity Rating (% Crop Injury),"13-hybrid (GM40 CMS × GM40 restorer, A122 homo), 50 g ai/ha + 0.25% NIS, 7 DAT",3.3%
same,Phytotoxicity Rating (% Crop Injury),"13-hybrid (GM40 CMS × GM40 restorer, A122 homo), 50 g ai/ha + 0.25% NIS, 21 DAT",0.0%
same,Phytotoxicity Rating (% Crop Injury),"13-hybrid (GM40 CMS × GM40 restorer, A122 homo), 100 g ai/ha + 0.25% NIS, 7 DAT",5.0%
same,Phytotoxicity Rating (% Crop Injury),"13-hybrid (GM40 CMS × GM40 restorer, A122 homo), 100 g ai/ha + 0.25% NIS, 21 DAT",1.7%
same,Phytotoxicity Rating (% Crop Injury),"13-hybrid (GM40 CMS × GM40 restorer, A122 homo), 200 g ai/ha + 0.25% NIS, 7 DAT",10.0%
same,Phytotoxicity Rating (% Crop Injury),"13-hybrid (GM40 CMS × GM40 restorer, A122 homo), 200 g ai/ha + 0.25% NIS, 21 DAT",3.3%
same,Phytotoxicity Rating (% Crop Injury),"14-hybrid (GM40 CMS × GM40 restorer, A122 homo), 50 g ai/ha + 0.25% NIS, 7 DAT",5.0%
same,Phytotoxicity Rating (% Crop Injury),"14-hybrid (GM40 CMS × GM40 restorer, A122 homo), 50 g ai/ha + 0.25% NIS, 21 DAT",0.0%
same,Phytotoxicity Rating (% Crop Injury),"14-hybrid (GM40 CMS × GM40 restorer, A122 homo), 100 g ai/ha + 0.25% NIS, 7 DAT",6.7%
same,Phytotoxicity Rating (% Crop Injury),"14-hybrid (GM40 CMS × GM40 restorer, A122 homo), 100 g ai/ha + 0.25% NIS, 21 DAT",3.3%
same,Phytotoxicity Rating (% Crop Injury),"14-hybrid (GM40 CMS × GM40 restorer, A122 homo), 200 g ai/ha + 0.25% NIS, 7 DAT",11.7%
same,Phytotoxicity Rating (% Crop Injury),"14-hybrid (GM40 CMS × GM40 restorer, A122 homo), 200 g ai/ha + 0.25% NIS, 21 DAT",5.0%
same,Phytotoxicity Rating (% Crop Injury),"15-hybrid (WT × GM40 restorer, A122 hetero), 50 g ai/ha + 0.25% NIS, 7 DAT",10.0%
same,Phytotoxicity Rating (% Crop Injury),"15-hybrid (WT × GM40 restorer, A122 hetero), 50 g ai/ha + 0.25% NIS, 21 DAT",6.7%
same,Phytotoxicity Rating (% Crop Injury),"15-hybrid (WT × GM40 restorer, A122 hetero), 100 g ai/ha + 0.25% NIS, 7 DAT",11.7%
same,Phytotoxicity Rating (% Crop Injury),"15-hybrid (WT × GM40 restorer, A122 hetero), 100 g ai/ha + 0.25% NIS, 21 DAT",11.7%
same,Phytotoxicity Rating (% Crop Injury),"15-hybrid (WT × GM40 restorer, A122 hetero), 200 g ai/ha + 0.25% NIS, 7 DAT",16.7%
same,Phytotoxicity Rating (% Crop Injury),"15-hybrid (WT × GM40 restorer, A122 hetero), 200 g ai/ha + 0.25% NIS, 21 DAT",30.0%
same,Phytotoxicity Rating (% Crop Injury),"16-hybrid (WT × GM40 restorer, A122 hetero), 50 g ai/ha + 0.25% NIS, 7 DAT",10.0%
same,Phytotoxicity Rating (% Crop Injury),"16-hybrid (WT × GM40 restorer, A122 hetero), 50 g ai/ha + 0.25% NIS, 21 DAT",6.7%
same,Phytotoxicity Rating (% Crop Injury),"16-hybrid (WT × GM40 restorer, A122 hetero), 100 g ai/ha + 0.25% NIS, 7 DAT",15.0%
same,Phytotoxicity Rating (% Crop Injury),"16-hybrid (WT × GM40 restorer, A122 hetero), 100 g ai/ha + 0.25% NIS, 21 DAT",16.7%
same,Phytotoxicity Rating (% Crop Injury),"16-hybrid (WT × GM40 restorer, A122 hetero), 200 g ai/ha + 0.25% NIS, 7 DAT",23.3%
same,Phytotoxicity Rating (% Crop Injury),"16-hybrid (WT × GM40 restorer, A122 hetero), 200 g ai/ha + 0.25% NIS, 21 DAT",31.7%
same,phytotoxicity,"heterozygous A205V/A122T lines, 21 DAT",2-3%
same,phytotoxicity,"homozygous A122T/A122T lines, 21 DAT",3-5%
same,phytotoxicity,"homozygous A205V/A205V lines, 21 DAT",15-22%
